Test: In vitro binding affinity towards 5-hydroxytryptamine 1D receptor beta by using [3H]5-HT as radioligand

In the case of `CCCNC1CCc2cccc(OS(=O)(=O)C(F)(F)F)c2C1` (stereo unspecified) [Trifluoro-methanesulfonic acid 7-propylamino-5,6,7,8-tetrahydro-naphthalen-1-yl ester], the Ki is reported as 169 nM.

Reference: BindingDB's records for doi:10.1021/jm00008a010 (1995)
